In PubChem BioAssay (NCI):
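Results reflect a 48-hour exposure of cells in 96-well plates to compound at five concentrations. TGI marks complete inhibition of growth.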

Assays:
Test in all cases: growth of human tumour cells (NCI), 48 h
A498 renal = system: A498 renal
ACHN renal = system: ACHN renal
CAKI-1 renal = system: CAKI-1 renal
COLO 205 colon = system: COLO 205 colon
DLD-1 colon = system: DLD-1 colon
DMS 114 small cell lung = system: DMS 114 small cell lung
EKVX NSCLC = system: EKVX NSCLC
HCC-2998 colon = system: HCC-2998 colon
HCT-15 colon = system: HCT-15 colon
HOP-62 NSCLC = system: HOP-62 NSCLC
K-562 leukemia = system: K-562 leukemia
KM20L2 colon = system: KM20L2 colon
LOX IMVI melanoma = system: LOX IMVI melanoma
LXFL 529 NSCLC = system: LXFL 529 NSCLC
M14 melanoma = system: M14 melanoma
M19-MEL melanoma = system: M19-MEL melanoma
NCI-H460 lung = system: NCI-H460 lung
NCI-H522 lung = system: NCI-H522 lung
OVCAR-4 ovarian = system: OVCAR-4 ovarian
OVCAR-5 ovarian = system: OVCAR-5 ovarian
RPMI-8226 leukemia = system: RPMI-8226 leukemia
RXF 393 renal = system: RXF 393 renal
SF-268 CNS = system: SF-268 CNS
SK-MEL-28 melanoma = system: SK-MEL-28 melanoma
SK-MEL-5 melanoma = system: SK-MEL-5 melanoma
SK-OV-3 ovarian = system: SK-OV-3 ovarian
SR leukemia = system: SR leukemia
SW-620 colon = system: SW-620 colon
TK-10 renal = system: TK-10 renal
U251 CNS = system: U251 CNS
UACC-257 melanoma = system: UACC-257 melanoma
UACC-62 melanoma = system: UACC-62 melanoma
UO-31 renal = system: UO-31 renal
786-0 renal = system: 786-0 renal
A549 NSCLC = system: A549 NSCLC
BT-549 breast = system: BT-549 breast
CCRF-CEM leukemia = system: CCRF-CEM leukemia
DU-145 prostate = system: DU-145 prostate
HCT-116 colon = system: HCT-116 colon
HL-60(TB) leukemia = system: HL-60(TB) leukemia
HOP-92 NSCLC = system: HOP-92 NSCLC
HS 578T breast = system: HS 578T breast
HT29 colon = system: HT29 colon
IGROV1 ovarian = system: IGROV1 ovarian
KM12 colon = system: KM12 colon
MALME-3M melanoma = system: MALME-3M melanoma
MCF7 breast = system: MCF7 breast
MDA-MB-231 breast = system: MDA-MB-231 breast
MDA-MB-435 = system: MDA-MB-435
MDA-N = system: MDA-N
MOLT-4 leukemia = system: MOLT-4 leukemia
NCI-H226 lung = system: NCI-H226 lung
NCI-H23 lung = system: NCI-H23 lung
NCI/ADR-RES ovarian = system: NCI/ADR-RES ovarian
OVCAR-3 ovarian = system: OVCAR-3 ovarian
OVCAR-8 ovarian = system: OVCAR-8 ovarian
PC-3 prostate = system: PC-3 prostate
SF-295 CNS = system: SF-295 CNS
SF-539 CNS = system: SF-539 CNS
SK-MEL-2 melanoma = system: SK-MEL-2 melanoma
SN12C renal = system: SN12C renal
SNB-19 CNS = system: SNB-19 CNS
SNB-75 CNS = system: SNB-75 CNS
T-47D breast = system: T-47D breast

SMILES: CCCCCCCCCCCCCCCC[N+](C)(C)Cc1ccc(C[N+](C)(C)CCCCCCCCCCCCCCCC)cc1
- TGI (A498 renal): > 100 µM
- TGI (ACHN renal): > 100 µM
- TGI (CAKI-1 renal): > 100 µM
- TGI (COLO 205 colon): > 100 µM
- TGI (DLD-1 colon): > 100 µM
- TGI (DMS 114 small cell lung): 5.02 µM
- TGI (EKVX NSCLC): > 100 µM
- TGI (HCC-2998 colon): > 100 µM
- TGI (HCT-15 colon): > 100 µM
- TGI (HOP-62 NSCLC): > 100 µM
- TGI (K-562 leukemia): 8.52 µM
- TGI (KM20L2 colon): > 100 µM
- TGI (LOX IMVI melanoma): 6.07 µM
- TGI (LXFL 529 NSCLC): > 100 µM
- TGI (M14 melanoma): > 100 µM
- TGI (M19-MEL melanoma): > 100 µM
- TGI (NCI-H460 lung): 8.71 µM
- TGI (NCI-H522 lung): > 22.4 µM
- TGI (OVCAR-4 ovarian): > 100 µM
- TGI (OVCAR-5 ovarian): 4.67 µM
- TGI (RPMI-8226 leukemia): > 100 µM
- TGI (RXF 393 renal): 3.27 µM
- TGI (SF-268 CNS): > 100 µM
- TGI (SK-MEL-28 melanoma): 7.57 µM
- TGI (SK-MEL-5 melanoma): > 100 µM
- TGI (SK-OV-3 ovarian): 5.27 µM
- TGI (SR leukemia): > 100 µM
- TGI (SW-620 colon): > 100 µM
- TGI (TK-10 renal): > 100 µM
- TGI (U251 CNS): 3.82 µM
- TGI (UACC-257 melanoma): > 100 µM
- TGI (UACC-62 melanoma): > 100 µM
- TGI (UO-31 renal): > 100 µM

SMILES: O=C(Cc1ccc(Cl)c(Cl)c1)NCCCN1CCN(CCCN2CCCCC2)CC1
- TGI (786-0 renal): 31.7 µM
- TGI (A498 renal): 31 µM
- TGI (A549 NSCLC): 49.5 µM
- TGI (ACHN renal): 60.2 µM
- TGI (BT-549 breast): 57.4 µM
- TGI (CAKI-1 renal): 41.3 µM
- TGI (CCRF-CEM leukemia): 34 µM
- TGI (COLO 205 colon): 29.8 µM
- TGI (DU-145 prostate): > 100 µM
- TGI (EKVX NSCLC): 39.3 µM
- TGI (HCC-2998 colon): 9.92 µM
- TGI (HCT-116 colon): 32.9 µM
- TGI (HCT-15 colon): 46.5 µM
- TGI (HL-60(TB) leukemia): 37.2 µM
- TGI (HOP-62 NSCLC): 32.1 µM
- TGI (HOP-92 NSCLC): 24.8 µM
- TGI (HS 578T breast): > 100 µM
- TGI (HT29 colon): 29.9 µM
- TGI (IGROV1 ovarian): 75 µM
- TGI (K-562 leukemia): 7.5 µM
- TGI (KM12 colon): 31.2 µM
- TGI (LOX IMVI melanoma): 30.2 µM
- TGI (M14 melanoma): 43.1 µM
- TGI (MALME-3M melanoma): 34.7 µM
- TGI (MCF7 breast): 34.2 µM
- TGI (MDA-MB-231 breast): 28.8 µM
- TGI (MDA-MB-435): 4.11 µM
- TGI (MDA-N): 6.31 µM
- TGI (MOLT-4 leukemia): 28.8 µM
- TGI (NCI-H226 lung): 42.4 µM
- TGI (NCI-H23 lung): 42.6 µM
- TGI (NCI-H460 lung): 33.6 µM
- TGI (NCI-H522 lung): 35.1 µM
- TGI (NCI/ADR-RES ovarian): > 100 µM
- TGI (OVCAR-3 ovarian): 80.7 µM
- TGI (OVCAR-4 ovarian): > 100 µM
- TGI (OVCAR-5 ovarian): 46.6 µM
- TGI (OVCAR-8 ovarian): > 100 µM
- TGI (PC-3 prostate): 40.7 µM
- TGI (RPMI-8226 leukemia): 16.3 µM
- TGI (RXF 393 renal): 31.1 µM
- TGI (SF-268 CNS): 50.4 µM
- TGI (SF-295 CNS): 37.7 µM
- TGI (SF-539 CNS): 28.8 µM
- TGI (SK-MEL-2 melanoma): 21.6 µM
- TGI (SK-MEL-28 melanoma): 4.95 µM
- TGI (SK-MEL-5 melanoma): 22.1 µM
- TGI (SK-OV-3 ovarian): 40.8 µM
- TGI (SN12C renal): 39 µM
- TGI (SNB-19 CNS): 63.9 µM
- TGI (SNB-75 CNS): 49.3 µM
- TGI (SR leukemia): 29 µM
- TGI (SW-620 colon): 46.7 µM
- TGI (T-47D breast): 44.4 µM
- TGI (TK-10 renal): 32.3 µM
- TGI (U251 CNS): 32.5 µM
- TGI (UACC-257 melanoma): 19.6 µM
- TGI (UACC-62 melanoma): 13.8 µM
- TGI (UO-31 renal): 3.63 µM
